From article PMC8808171, “Nonselective TRPC channel inhibition and suppression of aminoglycoside-induced premature termination codon readthrough by the small molecule AC1903” (The Journal of Biological Chemistry, 2022)
“Also recorded” adds a separate entry of the source.

Key:
JEB01 keratinocytes = assay: Measurement of intracellular G418 (gentamicin ELISA) in JEB01 keratinocytes; type: cell-based, human; conditions: 150 μM AC1903 (Fig. 2F)
Experimental: Figure 2 Effect of AC1903 on PTC readthrough and G418 trafficking.A and B, DMS-114 (A) or TC-71 (B) cells were pretreated with indicated concentrations of AC1903 for 3 h followed by exposure to 400 μg/ml G418. After 3 h medium was replenished and at 24 h cell lysates were prepared and p53 levels were measured. C and E, DMS-114 (C) or JEB01 (E) cells were either left untreated or pretreated with 150 μM AC1903 for 3 h followed by exposure to indicated concentrations of G418 for another 3 h. At 24 h cell lysates were prepared and p53 (C) or Collagen XVII (E) levels were measured. In panels A–C, protein levels were measured by automated capillary electrophoresis Western analysis (using vinculin as loading control). In panel E, protein levels were measured by Western blot (using beta-actin as loading control). […] D, total intracellular levels of G418 were measured in the same lysates as in (C) (n = 5; data normalized to the highest response in each experiment; bars represent mean ± SD). F, total intracellular levels of G418 were measured in the same lysates as in (E) (n = 2; data normalized to the highest response in each experiment; bars represent mean ± SD). ∗ indicates statistically significant difference between samples according to one-way ANOVA (p < 0.05). […]

TRPC5–C1 = biological target: T1, TRPC5–C1 (Homo sapiens, UniProt P48995+Q9UL62); assay: [Ca2+]i recordings (Fura-2), concatemeric TRPC5–C1 in HEK T-REx cells; type: cell-based; conditions: activator EA (30 nM)
T1 construct: expressed in transfected cells; host or cells: HEK T-REx (tetracycline-induced)
Experimental: (§1) Based on the findings described above, we wondered whether AC1903—which is typically used as a TRPC5 inhibitor at concentrations of 30–100 μM in cellular assays ([29], [56])—might have limited selectivity for TRPC5 channels and whether its effect on intracellular G418 levels and PTC readthrough might be the consequence of inhibition of other or multiple targets. All well-characterized TRPC channel inhibitors reported to date modulate multiple TRP(C) channels ([34], [35], [36]). […] Because limited data for the selectivity of AC1903 are available in the public domain, we decided to profile AC1903 against a selection of calcium-permeable cation channels by intracellular calcium ([Ca^2+]i) recordings using well-characterized cell lines and TRP channel activators ([46], [57], [58]), and the Ca^2+ indicator Fura-2. In these assays, cells (HEK 293, HEK T-REx, or CHO) overexpressing the relevant ion channel protein and loaded with Fura-2 AM (a cell-permeable precursor of Fura-2) were preincubated with various concentrations of AC1903 or vehicle (DMSO) for 30 min. Then, changes in ratiometric fluorescence (from background) were recorded upon addition of the respective ion channel activator.
(§2) HEK T-REx cells expressing tetracycline-inducible TRPC4, TRPC5, TRPC5–C1,TRPC4–C1, and hPiezo1 have been described previously ([46], [57], [59], [78]). […]

hPiezo1 = biological target: T2, hPiezo1 (Homo sapiens, UniProt Q92508); assay: [Ca2+]i recordings (Fura-2), Piezo1 in HEK T-REx cells; type: cell-based
T2 construct: expressed in transfected cells; host or cells: HEK T-REx (tetracycline-induced)
Experimental: as §1, §2

T2 sequence (Q92508 whole entry): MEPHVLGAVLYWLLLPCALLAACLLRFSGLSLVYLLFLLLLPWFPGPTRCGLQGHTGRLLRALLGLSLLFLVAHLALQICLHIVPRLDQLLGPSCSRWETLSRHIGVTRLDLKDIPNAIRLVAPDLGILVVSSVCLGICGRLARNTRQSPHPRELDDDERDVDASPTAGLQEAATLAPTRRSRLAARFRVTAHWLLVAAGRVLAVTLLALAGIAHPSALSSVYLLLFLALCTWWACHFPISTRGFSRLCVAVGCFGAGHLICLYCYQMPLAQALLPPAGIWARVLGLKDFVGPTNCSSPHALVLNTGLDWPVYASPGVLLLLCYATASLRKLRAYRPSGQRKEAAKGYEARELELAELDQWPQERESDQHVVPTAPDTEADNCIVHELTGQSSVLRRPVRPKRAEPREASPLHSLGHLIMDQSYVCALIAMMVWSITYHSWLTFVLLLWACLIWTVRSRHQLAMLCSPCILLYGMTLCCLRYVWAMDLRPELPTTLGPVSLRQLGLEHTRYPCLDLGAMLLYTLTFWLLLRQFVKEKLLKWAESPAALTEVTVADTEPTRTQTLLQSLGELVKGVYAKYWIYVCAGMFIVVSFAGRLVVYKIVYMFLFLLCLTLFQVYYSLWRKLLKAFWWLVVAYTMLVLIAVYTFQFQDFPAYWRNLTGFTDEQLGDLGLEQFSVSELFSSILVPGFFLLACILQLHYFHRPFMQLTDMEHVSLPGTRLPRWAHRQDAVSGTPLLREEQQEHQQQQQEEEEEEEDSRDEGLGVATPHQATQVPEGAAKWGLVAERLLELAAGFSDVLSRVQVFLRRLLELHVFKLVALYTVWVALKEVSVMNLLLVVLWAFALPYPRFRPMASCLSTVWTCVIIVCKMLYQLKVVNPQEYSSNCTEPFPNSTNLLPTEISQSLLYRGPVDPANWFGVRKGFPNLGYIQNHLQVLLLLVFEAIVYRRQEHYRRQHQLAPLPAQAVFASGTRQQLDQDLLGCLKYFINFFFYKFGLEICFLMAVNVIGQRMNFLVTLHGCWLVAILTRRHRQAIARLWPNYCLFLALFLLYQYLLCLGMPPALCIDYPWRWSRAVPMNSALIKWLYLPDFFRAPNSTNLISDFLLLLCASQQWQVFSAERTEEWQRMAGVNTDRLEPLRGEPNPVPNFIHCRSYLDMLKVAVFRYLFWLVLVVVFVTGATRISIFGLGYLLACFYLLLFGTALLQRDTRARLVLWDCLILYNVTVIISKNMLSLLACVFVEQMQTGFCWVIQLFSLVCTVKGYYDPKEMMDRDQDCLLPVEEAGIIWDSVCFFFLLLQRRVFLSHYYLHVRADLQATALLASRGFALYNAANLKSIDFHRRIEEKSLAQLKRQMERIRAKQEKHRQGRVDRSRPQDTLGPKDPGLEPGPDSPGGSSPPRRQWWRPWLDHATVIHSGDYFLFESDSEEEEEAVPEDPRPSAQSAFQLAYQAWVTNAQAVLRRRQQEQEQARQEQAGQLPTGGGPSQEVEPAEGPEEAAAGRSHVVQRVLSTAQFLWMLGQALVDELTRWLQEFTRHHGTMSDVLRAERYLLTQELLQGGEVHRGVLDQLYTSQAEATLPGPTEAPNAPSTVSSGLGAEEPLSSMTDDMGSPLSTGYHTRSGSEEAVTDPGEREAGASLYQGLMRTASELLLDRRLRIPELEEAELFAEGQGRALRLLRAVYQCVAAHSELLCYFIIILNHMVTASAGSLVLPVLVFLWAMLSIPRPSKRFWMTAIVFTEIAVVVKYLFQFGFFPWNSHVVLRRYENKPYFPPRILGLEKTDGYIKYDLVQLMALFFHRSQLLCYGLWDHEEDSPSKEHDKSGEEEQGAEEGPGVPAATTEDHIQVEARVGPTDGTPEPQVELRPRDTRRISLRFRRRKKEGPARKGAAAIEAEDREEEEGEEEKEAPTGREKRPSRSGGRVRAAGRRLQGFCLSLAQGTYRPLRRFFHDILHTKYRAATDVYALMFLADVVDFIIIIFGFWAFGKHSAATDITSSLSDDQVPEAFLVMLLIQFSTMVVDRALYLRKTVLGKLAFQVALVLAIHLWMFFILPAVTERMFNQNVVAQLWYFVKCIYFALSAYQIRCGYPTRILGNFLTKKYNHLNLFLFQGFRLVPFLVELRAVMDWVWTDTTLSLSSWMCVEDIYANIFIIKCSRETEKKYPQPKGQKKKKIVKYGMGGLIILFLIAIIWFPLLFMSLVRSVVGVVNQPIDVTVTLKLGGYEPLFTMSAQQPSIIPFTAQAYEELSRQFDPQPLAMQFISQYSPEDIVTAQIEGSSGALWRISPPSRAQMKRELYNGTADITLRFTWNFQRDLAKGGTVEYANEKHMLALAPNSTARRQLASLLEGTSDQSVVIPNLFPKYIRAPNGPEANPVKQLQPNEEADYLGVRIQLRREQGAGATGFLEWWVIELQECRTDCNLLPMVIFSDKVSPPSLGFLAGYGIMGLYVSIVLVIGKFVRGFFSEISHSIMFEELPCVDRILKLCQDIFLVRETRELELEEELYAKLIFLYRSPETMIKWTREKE
T1 sequence (Q9UL62+P48995 fused): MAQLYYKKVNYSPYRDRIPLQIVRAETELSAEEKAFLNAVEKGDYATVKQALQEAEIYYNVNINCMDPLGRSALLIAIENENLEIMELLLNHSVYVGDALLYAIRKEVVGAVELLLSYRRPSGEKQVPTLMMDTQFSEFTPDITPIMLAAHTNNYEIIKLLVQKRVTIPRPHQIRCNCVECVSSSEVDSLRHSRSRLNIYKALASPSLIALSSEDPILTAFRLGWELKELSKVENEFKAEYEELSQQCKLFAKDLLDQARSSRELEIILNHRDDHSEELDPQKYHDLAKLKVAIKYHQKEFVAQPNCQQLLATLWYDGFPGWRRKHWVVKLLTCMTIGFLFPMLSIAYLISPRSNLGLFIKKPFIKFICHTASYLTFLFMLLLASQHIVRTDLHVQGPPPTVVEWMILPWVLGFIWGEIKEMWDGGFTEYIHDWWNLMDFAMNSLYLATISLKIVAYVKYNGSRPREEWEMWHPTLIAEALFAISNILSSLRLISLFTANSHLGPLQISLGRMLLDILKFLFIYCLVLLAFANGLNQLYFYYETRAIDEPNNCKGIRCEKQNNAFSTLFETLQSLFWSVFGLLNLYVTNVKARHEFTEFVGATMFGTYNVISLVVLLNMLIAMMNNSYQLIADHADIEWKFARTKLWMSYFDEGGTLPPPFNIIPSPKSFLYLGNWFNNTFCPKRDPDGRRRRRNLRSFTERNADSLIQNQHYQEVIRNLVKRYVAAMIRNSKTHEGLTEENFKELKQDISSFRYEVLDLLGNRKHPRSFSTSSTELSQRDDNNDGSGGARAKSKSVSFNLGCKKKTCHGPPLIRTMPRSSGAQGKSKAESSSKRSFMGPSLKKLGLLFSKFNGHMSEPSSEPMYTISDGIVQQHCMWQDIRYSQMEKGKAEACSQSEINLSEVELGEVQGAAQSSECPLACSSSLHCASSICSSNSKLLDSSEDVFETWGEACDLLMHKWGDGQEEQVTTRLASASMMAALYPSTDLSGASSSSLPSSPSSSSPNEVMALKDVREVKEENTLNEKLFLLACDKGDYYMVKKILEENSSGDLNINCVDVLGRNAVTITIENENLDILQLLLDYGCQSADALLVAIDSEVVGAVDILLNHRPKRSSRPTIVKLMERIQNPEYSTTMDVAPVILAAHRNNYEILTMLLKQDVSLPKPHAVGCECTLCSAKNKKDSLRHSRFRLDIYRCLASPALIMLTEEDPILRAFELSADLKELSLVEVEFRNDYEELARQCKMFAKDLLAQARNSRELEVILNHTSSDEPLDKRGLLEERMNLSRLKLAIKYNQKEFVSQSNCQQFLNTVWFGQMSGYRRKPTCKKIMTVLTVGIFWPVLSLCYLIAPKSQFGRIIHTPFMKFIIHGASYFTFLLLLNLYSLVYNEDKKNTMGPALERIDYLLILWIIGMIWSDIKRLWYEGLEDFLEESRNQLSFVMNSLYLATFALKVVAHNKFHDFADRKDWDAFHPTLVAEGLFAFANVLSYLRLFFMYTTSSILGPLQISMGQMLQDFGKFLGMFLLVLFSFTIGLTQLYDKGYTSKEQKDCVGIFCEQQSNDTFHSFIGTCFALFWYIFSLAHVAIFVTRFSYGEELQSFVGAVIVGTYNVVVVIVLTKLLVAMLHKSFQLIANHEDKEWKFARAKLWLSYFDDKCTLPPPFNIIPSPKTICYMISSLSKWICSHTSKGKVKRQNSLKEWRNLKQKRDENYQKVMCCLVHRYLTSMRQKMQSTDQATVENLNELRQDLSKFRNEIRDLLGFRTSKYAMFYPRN

- IC50 (TRPC5–C1; HEK T-REx): 4.7 µM
- Hill slope (TRPC5–C1): -1.3
- IC50 (hPiezo1; HEK T-REx, activator Yoda1 (3 μM)): > 100 µM
SMILES: c1ccc(Cn2c(NCc3ccco3)nc3ccccc32)cc1 [AC1903]
- intracellular G418 levels in cells exposed to AC1903 (JEB01 keratinocytes): significantly declined
- inhibition of Yoda1-activated Piezo1 channels (hPiezo1; AC1903 up to 30 μM): does not affect; also recorded: did not inhibit
